In US7514438B2, “Melanin concentrating hormone receptor antagonist” (Amgen, Inc., priority 2003, dated 2009):
Read-outs that look alike come from different tables or passages of the source.

How the values were obtained:
[1] = target: T1, rat MCH 1 receptor (rMCH1R) (Rattus norvegicus, UniProt P97639); experiment: 125I-MCH ligand binding assay, rMCH
T1 construct: expressed in transfected cells; host or cells: HEK 293 (membranes)
Protocol: (§1) Human embryonic kidney cells (293 total) expressing either human, rat, or mouse MCH receptor were harvested from 150 mm culture dishes using PBS. Spinning at 1500 rpm for 2 minutes initially pelleted cells. The resulting pellet was then homogenized in 15 mL ice cold sucrose buffer (25 mM HEPES, 0.3 M sucrose, pH 7.4) with a motorized, glass fitted, Teflon® homogenizer. The homogenate was centrifuged at 48,000×g at 4° C. for 10 minutes, resuspended in 15 mL assay buffer (25 mM HEPES, 10 mM mgCl2, 0.2% BSA, 0.1 mg/mL STI, 0.1 mg/mL Pefabloc®, 1 μM Phosphoramidon, pH 7.4) with a Tissue-Tearor® (Biospec Products) and centrifuged again at 48,000×g for 10 minutes. The pellet was homogenized for a third time in 15 mL assay buffer using the Tissue-Tearor® and again centrifuged at 48,000×g for 10 minutes. The resulting pellet was resuspended in assay buffer at a wet weight concentration of 10-20 mg/mL.
(§2) Binding assays were determined as described below using mouse, rat or human MCH 1 receptors (mMCH1R, rMCH1R, and hMCH1R, respectively) expressed in HEK 293; IC50 values were calculated.
(§3) Binding assays were performed in 96-well U-bottom plates. Membranes (100 μg tissue) were incubated at 30° C. for 90 minutes in assay buffer with various peptides in the presence of 0.2 nM ^125I native-MCH (Perkin-Elmer Life Sciences, Boston, Mass.) in 100 μL total volume. Non-specific binding was assessed in the presence of 1 μM cold native-MCH. The reaction was terminated by rapid filtration through Unfilter-96 GF/C glass fiber filter plates (FilterMate® 196 Harvester, Packard Instrument Co., Meriden, Conn.) pre-soaked in PBS/0.5% BSA, followed by three washes with 300 μL ice-cold water. Bound radioactivity was determined using a TopCount® microplate scintillation and luminescence counter (Packard Instrument Co., Meriden, Conn.). Nonlinear regression analyses of drug concentration curves were performed using GraphPad Prism® (GraphPad Software, Inc., San Diego, Calif.).

[2] = target: T2, human MCH 1 receptor (hMCH1R) (Homo sapiens, UniProt Q99705); experiment: 125I-MCH ligand binding assay, hMCH
T2 construct: expressed in transfected cells; host or cells: HEK 293 (membranes)
T2 sequence (Q99705 whole entry): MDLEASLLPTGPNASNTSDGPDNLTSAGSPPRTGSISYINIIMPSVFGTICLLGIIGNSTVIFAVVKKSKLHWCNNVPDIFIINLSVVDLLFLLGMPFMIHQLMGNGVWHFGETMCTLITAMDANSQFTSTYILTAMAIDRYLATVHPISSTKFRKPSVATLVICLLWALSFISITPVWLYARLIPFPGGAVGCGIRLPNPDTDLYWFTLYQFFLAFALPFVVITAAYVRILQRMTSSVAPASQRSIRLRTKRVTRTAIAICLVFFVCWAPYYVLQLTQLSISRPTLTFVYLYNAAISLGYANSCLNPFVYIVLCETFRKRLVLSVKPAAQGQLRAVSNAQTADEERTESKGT
Protocol: as §1, §2, §3

rat MCH1 receptor = rat MCH1 receptor (Rattus norvegicus, UniProt P97639); experiment: rMCH FLIPR calcium mobilization assay (CHOK1-Gqi cells); assay type: cell-based; design: expressed in transfected cells; host or cells: CHOK1-Gqi
Chain of rat MCH1 receptor (P97639 whole entry): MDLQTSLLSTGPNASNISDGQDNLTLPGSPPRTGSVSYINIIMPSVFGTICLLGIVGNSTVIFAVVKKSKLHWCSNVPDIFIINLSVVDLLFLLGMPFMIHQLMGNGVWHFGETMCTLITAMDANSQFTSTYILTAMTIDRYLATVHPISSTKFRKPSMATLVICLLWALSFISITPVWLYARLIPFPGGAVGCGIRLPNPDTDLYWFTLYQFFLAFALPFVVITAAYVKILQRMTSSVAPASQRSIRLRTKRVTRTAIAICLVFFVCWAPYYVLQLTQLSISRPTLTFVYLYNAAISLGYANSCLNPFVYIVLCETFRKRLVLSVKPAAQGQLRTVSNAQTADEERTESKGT
Protocol: Pharmacological analyses were conducted using either a HT-PS100 device (Axiom Biotechnologies, San Diego, Calif.), which provides high-resolution dose-response fluorometric measurements of [Ca^++]i mobilization, or using a FLIPR® device (Molecular Devices, Sunnyvale, Calif.).
Materials: Pharmacological analysis was conducted using a FLIPR® device (Molecular Devices, Sunnyvale, Calif.). CHOK1-Gqi cells were stably transfected with the rat MCH1 receptor and maintained under G418 antibiotic pressure. FLIPR® assay buffer consisted of phenol red-free DMEM+2.5 mM probenecid. […]. Test compounds were prepared as 10 mM stocks in 100% DMSO and diluted to a top end working concentration of 10 μM in 96 well black, flat bottom, collagen-I coated plates (Becton Dickinson, Bedford, Mass.).
Methods: CHOK1-Gqi cells stably expressing MCH1R were maintained in Dulbeco's modified Eagle's medium (GIBCO/Life Technologies, Rockville, Md.) supplemented with 2 mM glutamine and 10% dialyzed fetal bovine serum (HyCLone, Logan, Utah) at 37° C., 5% CO2. Cells were harvested by 10′ treatment with Versene (GIBCO/Life Technologies) followed by trituration, washing twice with cold (4° C.) hybridoma medium (Serum/Protein free, with L-glutamine, sodium bicarbonate, MOPS buffer) (Sigma-Aldrich Corp, St. Louis, Mo.) and replated onto 96 well black, flat bottom, collagen-I coated plates to a density of 10,000 cells/well. The cells were then loaded with the fluorescent calcium indicator Fura-2 (Molecular Probes, Eugene, Oreg.) at 1.6 μM for 60′ at room temperature. The loaded cells were then washed twice with 90 μl/well of wash buffer (1×HBSS, 20 mM HEPES, 2.5 mM probenecid).
Receptor-stimulated intracellular calcium responses were detected using FLIPR® by monitoring increases in the Fura-2 fluorescence response.
Test compounds were screened for MCH1R activity in the FLIPR® for both agonist and antagonist action. Agonist mode challenges were conducted at a maximum gradient concentration of 1 μM. Antagonist activity was tested by 10 min pre-incubation of cells at a compound concentration of defined to be 300× the EC50 of MCH (typically 1 μM), with subsequent introduction of MCH at a concentration 5-fold of EC50 as determined in preliminary experiments. […].
Several fixed concentrations of antagonist compounds were prepared in 10-fold increments, and presented to the cells in a gradient of increasing MCH concentration. Values for compound pA2 were calculated by linear regression of MCH EC50s as a function of antagonist concentration.

human MCH receptor = target: T3, human MCH receptor (Homo sapiens, UniProt Q99705); experiment: hMCH FLIPR calcium mobilization assay; assay type: cell-based; conditions: 100 μM or less list; read-out: Ki in the hMCH FLIPR assay
T3 construct: expressed in transfected cells
T3 sequence (Q99705 whole entry): as the sequence (Q99705 whole entry) above

[3] = HEK 293 membranes, 0.2 nM 125I native-MCH, 100 nM or less list, read-out: IC50 in the rMCH binding assay
[4] = HEK 293 membranes, 0.2 nM 125I native-MCH, 100 μM or less list, read-out: IC50 in the rMCH binding assay
[5] = HEK 293 membranes, 0.2 nM 125I native-MCH, 100 μM or less list, read-out: IC50 in the hMCH binding assay
[6] = CHOK1-Gqi cells, rat MCH1 receptor, 100 μM or less list, read-out: Ki in the rMCH FLIPR assay

T1 sequence (P97639 whole entry): as the sequence (P97639 whole entry) above

Structure (SMILES) | IC50 [1, 4] [µM] | IC50 [2, 5] [µM] | Ki (rat MCH1 receptor; [6]) [µM] | Ki (human MCH receptor) [µM] | also measured
Cc1cccc(C)c1-n1nnnc1[C@H](c1cccc(C(F)(F)F)c1)N1CCN(Cc2cc3ccccc3n2C)CC1 (racemic) [Compound 148, 2-{4-[[1-(2,6-dimethylphenyl)-1H-tetrazol-5-yl]-(3-trifluoromethylphenyl)methyl]piperazin-1-ylmethyl}-1-methyl-1H-indole] | ≤ 100 | ≤ 100 | ≤ 100 | ≤ 100 | 
COc1ccc(/C=C/CN2CCN([C@@H](c3cccc(C(F)(F)F)c3)c3nnnn3-c3c(C)cccc3C)CC2)cc1 (racemic) [Compound 147, 1-[[1-(2,6-dimethylphenyl)-1H-tetrazol-5-yl]-(3-trifluoromethylphenyl)methyl]-4-[3-(4-methoxyphenyl)allyl]piperazine] | ≤ 100 | ≤ 100 | ≤ 100 | ≤ 100 | 
Cc1cccc(C)c1-n1nnnc1[C@H](c1ccc(-n2ccnc2)cc1)N1CCN(C/C=C/c2ccccc2)CC1 (stereo in doubt) [Compound 135, 1-[[1-(2,6-dimethylphenyl)-1H-tetrazol-5-yl]-(4-imidazol-1-ylphenyl)methyl]-4-(3-phenylallyl)piperazine] | ≤ 100 | ≤ 100 | ≤ 100 | ≤ 100 | 
Cc1cccc(C)c1-n1nnnc1C1(N2CCN(C/C=C/c3ccccc3)CC2)CCCCC1 [Compound 92, 1-{1-[1-(2,6-dimethylphenyl)-1H-tetrazol-5-yl]cyclohexyl)-4-(3-phenylallyl)piperazine] |  |  |  |  | IC50 [1]: ≤ 100 µM; IC50 [2]: ≤ 100 µM; Ki (rat MCH1 receptor): ≤ 100 µM
Cc1cccc(C)c1-n1nnnc1[C@H](c1cccc(Oc2cc(Cl)cc(Cl)c2)c1)N1CCN(C/C=C/c2ccccc2)CC1 (racemic) [Compound 87, 1-{[3-(3,5-dichloro-phenoxy)-phenyl]-[1-(2,6-dimethylphenyl)-1H-tetrazol-5-yl]methyl}-4-(3-phenylallyl)piperazine] |  | ≤ 100 | ≤ 100 | ≤ 100 | 
Cc1cccc(C)c1-n1nnnc1[C@H](c1cccc2c1OCO2)N1CCN(C/C=C/c2ccccc2)CC1 (racemic) [Compound 81, 1-{benzo[1,3]diaxol-4-yl-[1-(2,6-dimethylphenyl)-1H-tetrazol-5-yl]methyl}-4-(3-phenylallyl)piperazine] | ≤ 100 | ≤ 100 |  |  | 
Cc1cccc(C)c1-n1nnnc1[C@H](c1cccc(C(F)(F)F)c1)N1CCN(C/C=C/c2ccccc2)CC1 (stereo in doubt) [Compound 142, 1-[[1-(2,6-dimethylphenyl)-1H-tetrazol-5-yl]-(3-trifluoromethylphenyl)methyl]-4-(3-phenylallyl)piperazine] | ≤ 100 | ≤ 100 |  |  | IC50 [1, 3]: ≤ 0.1 µM; IC50 ([2]; HEK 293 membranes, 0.2 nM 125I native-MCH, 100 nM or less list, read-out: IC50 in the hMCH binding assay): ≤ 0.1 µM

Continued, in another order:

IC50 [1, 4] [µM] | IC50 [2, 5] [µM] | Ki (rat MCH1 receptor; [6]) [µM] | Ki (human MCH receptor) [µM] | Structure (SMILES) | also measured
≤ 100 | ≤ 100 | ≤ 100 |  | Cc1cccc(C)c1-n1nnnc1C(c1ccc(-c2ccccc2)cc1)N1CCN(C/C=C/c2ccccc2)CC1 (centres unmarked) [Compound 11, 1-{biphenyl-4-yl-[1-(2,6-dimethyiphenyl)-1H-tetrazol-5-yl]methyl}-4-(3-phenylallyl)piperazine] | IC50 [1, 3]: ≤ 0.1 µM; Ki (rat MCH1 receptor; CHOK1-Gqi cells, rat MCH1 receptor, 100 nM or less list, read-out: Ki in the rMCH FLIPR assay): ≤ 0.1 µM
≤ 100 | ≤ 100 | ≤ 100 |  | Cc1cccc(C)c1-n1nnnc1[C@H](c1cccc(Oc2ccccc2)c1)N1CCN(C/C=C/c2ccccc2)CC1 (racemic) [Compound 12, 1-[[1-(2,6-dimethyiphenyl)-1H-tetrazol-5-yl]-(3-phenoxyphenyl)methyl]-4-(3-phenylallyl)piperazine] | 
 | ≤ 100 | ≤ 100 | ≤ 100 | Cc1cccc(C)c1-n1nnnc1[C@H](c1ccncc1)N1CCN(C/C=C/c2ccccc2)CC1 (racemic) [Compound 86, 1-{[1-(2,6-dimethylphenyl)-1H-tetrazol-5-yl]pyridin-4-ylmethyl}-4-(3-phenylallyl)piperazine] | 
≤ 100 | ≤ 100 |  |  | C(=C\c1ccccc1)/CN1CCN([C@@H](c2ccccc2)c2nnnn2CCc2ccccc2)CC1 (racemic) [Compound 35, 1-[(1-phenethyl-1H-tetrazol-5-yl)phenylmethyl]-4-(3-phenylallyl) piperazine] | 
≤ 100 | ≤ 100 |  |  | Cc1cccc(C)c1-n1nnnc1[C@H](COCc1ccccc1)N1CCN(C/C=C/c2ccccc2)CC1 (racemic) [Compound 69, 1-{2-benzyloxy-1-[1-(2,6-dimethylphenyl)-1H-tetrazol-5-yl]ethyl}-4-(3-phenylallyl)piperazine] | 
≤ 100 | ≤ 100 |  |  | Cc1cccc(C)c1-n1nnnc1[C@H](c1ccc(F)cc1)N1CCN(C/C=C/c2ccccc2)CC1 (racemic) [Compound 58, 1-[[1-(2,6-dimethylphenyl)-1H-tetrazol-5-yl]-(4-fluorophenyl)methyl]-4-(3-phenylallyl)piperazine] | 
≤ 100 | ≤ 100 |  |  | CN1CCCC1CCn1nnnc1[C@H](c1ccccc1)N1CCN(C/C=C/c2ccccc2)CC1 (stereo in doubt) [Compound 37, 1-({1-[2-(1-methyl-pyrrolidin-2-yl)ethyl]-1H-tetrazol-5-yl}phenylmethyl)-4-(3-phenylallyl)piperazine] | 
≤ 100 | ≤ 100 |  |  | COC(=O)C(Cc1c[nH]c2ccccc12)n1nnnc1[C@H](c1ccccc1)N1CCN(C/C=C/c2ccccc2)CC1 (stereo in doubt) [Compound 31, 3-(1H-indol-3-yl)-2-(5-{phenyl-[4-(3-phenylallyl)piperazin-1-yl]methyl}tetrazol-1-yl)propionic acid methyl ester] | 
≤ 100 | ≤ 100 |  |  | Cc1cccc(C)c1-n1nnnc1[C@H](c1ccccc1C#N)N1CCN(C/C=C/c2ccccc2)CC1 (racemic) [Compound 80, 2-{[1-(2,6-dimethylphenyl)-1H-tetrazol-5-yl]-[4-(3-phenylallyl)piperazin-1-yl]methyl}benzonitrile] | 
